Results reported in ChEMBL document CHEMBL1136071, “Synthesis and biological evaluation of hydroxamate-Based inhibitors of glutamate carboxypeptidase II” (Bioorg Med Chem Lett, 2003).

Legend:
[1] = target: Glutamate carboxypeptidase 2 (Homo sapiens, UniProt Q04609); experiment: Inhibition of Glutamate carboxypeptidase II
[2] = target: Bacterial leucyl aminopeptidase (Vibrio proteolyticus, UniProt Q01693); experiment: Inhibition of metalloprotease from family M28, Aeromonas proteolytica aminopeptidase
Bacterial leucyl aminopeptidase, sequence (Q01693 whole entry): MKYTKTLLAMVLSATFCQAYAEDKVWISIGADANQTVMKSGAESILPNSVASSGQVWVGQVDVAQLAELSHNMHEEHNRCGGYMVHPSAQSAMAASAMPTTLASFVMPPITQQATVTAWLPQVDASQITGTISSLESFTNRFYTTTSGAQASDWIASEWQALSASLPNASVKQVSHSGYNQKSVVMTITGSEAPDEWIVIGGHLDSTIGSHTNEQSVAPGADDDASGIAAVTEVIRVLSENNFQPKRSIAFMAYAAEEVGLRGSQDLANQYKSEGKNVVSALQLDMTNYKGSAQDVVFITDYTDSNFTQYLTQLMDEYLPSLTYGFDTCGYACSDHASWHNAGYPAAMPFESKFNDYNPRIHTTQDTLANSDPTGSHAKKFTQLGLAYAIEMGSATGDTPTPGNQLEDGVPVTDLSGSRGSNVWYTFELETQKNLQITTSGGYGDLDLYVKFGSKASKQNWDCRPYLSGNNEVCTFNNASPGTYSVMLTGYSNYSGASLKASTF

Glutamate carboxypeptidase 2, sequence (Q04609 whole entry): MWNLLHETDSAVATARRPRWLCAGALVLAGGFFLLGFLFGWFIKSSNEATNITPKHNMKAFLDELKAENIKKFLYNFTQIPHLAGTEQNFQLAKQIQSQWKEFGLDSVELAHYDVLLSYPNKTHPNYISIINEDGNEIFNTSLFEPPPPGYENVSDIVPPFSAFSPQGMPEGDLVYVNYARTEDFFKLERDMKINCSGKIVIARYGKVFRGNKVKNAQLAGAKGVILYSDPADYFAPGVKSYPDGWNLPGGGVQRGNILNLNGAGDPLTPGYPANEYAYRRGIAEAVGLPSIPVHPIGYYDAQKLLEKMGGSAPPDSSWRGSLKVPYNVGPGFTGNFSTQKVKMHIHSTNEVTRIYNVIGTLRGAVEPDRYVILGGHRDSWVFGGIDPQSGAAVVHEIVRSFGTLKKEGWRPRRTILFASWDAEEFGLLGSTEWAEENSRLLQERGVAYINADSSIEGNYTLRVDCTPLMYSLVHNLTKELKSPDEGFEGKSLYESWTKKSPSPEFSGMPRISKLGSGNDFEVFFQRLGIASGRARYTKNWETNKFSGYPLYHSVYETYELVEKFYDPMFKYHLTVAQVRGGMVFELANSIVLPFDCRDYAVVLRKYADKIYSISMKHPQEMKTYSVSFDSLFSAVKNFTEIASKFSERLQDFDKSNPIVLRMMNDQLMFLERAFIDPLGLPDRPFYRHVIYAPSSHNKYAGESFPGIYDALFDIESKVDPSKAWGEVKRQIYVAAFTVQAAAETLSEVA

| SMILES | IC50 [1] [nM] | Ki [2] [nM] |
| --- | --- | --- |
| CC(C)C[C@H](N)C(=O)NO | – | 350 |
| N[C@H](CC(=O)NO)C(=O)O | > 100000 | – |
| CC(C)C[C@@H](N)C(=O)NO | – | 2 |
| N[C@@H](CC(=O)NO)C(=O)O | > 100000 | – |
| CC(=O)N[C@@H](CC(=O)O)C(=O)NO | > 100000 | – |
| N[C@@H](CCC(=O)NO)C(=O)O [GLUTAMINE HYDROXAMATE] | > 100000 | – |

Other lines, results leading:

| IC50 [1] [nM] | Ki [2] [nM] | SMILES |
| --- | --- | --- |
| > 100000 | – | CC(=O)N[C@H](CC(=O)O)C(=O)NO |
| 940 | – | O=C(O)CCC(CCCC(=O)NO)C(=O)O (stereo not drawn) |
| 43000 | – | O=C(O)CCC(=O)NO |
| 1200 | – | O=C(O)CCC(CCC(=O)NO)C(=O)O (stereo not drawn) |
| 82 | – | O=C(O)CCC(CP(=O)(O)Cc1c(F)c(F)c(F)c(F)c1F)C(=O)O (stereo not drawn) |
| 220 | – | O=C(O)CCC(CC(=O)NO)C(=O)O (stereo not drawn) |
| 20000 | – | O=C(O)CCC(CC(=O)O)C(=O)O (stereo not drawn) |
